Data: patent US20210382058A1, “PATIENT SELECTION FOR TREATMENT OF MYC POSITIVE CANCERS WITH INDENOISOQUINOLINES” (Purdue Research Foundation, priority 2020, published 2021)
Read-outs that look alike come from different tables or passages of the source.

Key:
[1] = system: MYC protein expression in MCF-7 breast cancer cells; assay: Western blotting of MYC protein level in MCF-7 cells; type: cell-based, human; conditions: Homo sapiens, MCF7; western blotting, MCF-7 cells, 0.5, 1, 2, and 4 μM, 24 hours; read-out: MYC Inhibition
Summary of the method: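 Immunoblotting with ECL detection quantified MYC, with GAPDH (1:2000) as reference and anti-MYC at 1:1000.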

NCI-60 cancer cell lines = assay: NCI-60 cancer cell line drug screen (GI50, MGM); type: cell-based, human; conditions: Homo sapiens; for GI50: read-out: Antiproliferative Activities [GI50 (μM)]
Protocol: Cancer cells were incubated with the test compounds at five concentrations ranging from 100 μM to 10 nM for 48 h. […] The approximate average of GI50 values across the entire panel of NCI-60 cancer cell lines for each compound was recorded as the MGM value.

human topoisomerase I = molecular target: T1, human topoisomerase I (Homo sapiens, UniProt P11387); conditions: relative topoisomerase I inhibition levels, previously determined, six levels (0 - 5, +++++ = 5); cited from earlier work
T1 sequence (P11387 1-765): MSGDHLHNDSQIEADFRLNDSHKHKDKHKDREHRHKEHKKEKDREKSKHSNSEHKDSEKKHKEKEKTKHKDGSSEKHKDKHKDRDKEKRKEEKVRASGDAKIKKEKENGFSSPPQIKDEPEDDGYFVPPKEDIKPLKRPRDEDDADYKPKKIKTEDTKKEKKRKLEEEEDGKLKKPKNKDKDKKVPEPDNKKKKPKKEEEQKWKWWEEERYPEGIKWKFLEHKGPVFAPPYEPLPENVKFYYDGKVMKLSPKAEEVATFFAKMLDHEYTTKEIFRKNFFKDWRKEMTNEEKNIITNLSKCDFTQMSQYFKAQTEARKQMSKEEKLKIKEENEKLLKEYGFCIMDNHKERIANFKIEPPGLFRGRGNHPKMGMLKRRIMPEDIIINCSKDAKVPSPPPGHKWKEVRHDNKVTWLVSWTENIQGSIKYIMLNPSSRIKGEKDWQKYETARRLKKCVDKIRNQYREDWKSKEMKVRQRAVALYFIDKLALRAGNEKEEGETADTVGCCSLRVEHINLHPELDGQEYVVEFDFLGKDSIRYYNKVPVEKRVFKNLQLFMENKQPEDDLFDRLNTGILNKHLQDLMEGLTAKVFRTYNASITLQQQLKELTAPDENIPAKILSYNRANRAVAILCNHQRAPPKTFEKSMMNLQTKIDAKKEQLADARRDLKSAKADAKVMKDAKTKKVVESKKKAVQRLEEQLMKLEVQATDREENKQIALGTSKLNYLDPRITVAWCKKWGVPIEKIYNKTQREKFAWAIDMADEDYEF

## COc1ccc2c(c1)C(=O)c1c-2n(CCCN2CCOCC2)c(=O)c2ccccc12 [Compound 19]
[1]
  minimal effective concentration: 2 µM
NCI-60 cancer cell lines; 786-0, Renal Cancer, 786-0
  GI50: 1.78 µM
NCI-60 cancer cell lines; A498, Renal Cancer, A498
  GI50: 1.64 µM
NCI-60 cancer cell lines; A549, Non-Small Cell Lung Cancer, A549/ATCC
  GI50: 1.96 µM
NCI-60 cancer cell lines; ACHN, Renal Cancer, ACHN
  GI50: 1.67 µM
NCI-60 cancer cell lines; BT-549, Breast Cancer, BT-549
  GI50: 4.11 µM
NCI-60 cancer cell lines; CAKI-1, Renal Cancer, CAKI-1
  GI50: 3.17 µM
NCI-60 cancer cell lines; CCRF-CEM, Leukemia, CCRF-CEM
  GI50: 1.57 µM
NCI-60 cancer cell lines; COLO 205, Colon Cancer, COLO 205
  GI50: 1.74 µM
NCI-60 cancer cell lines; DU-145, Prostate Cancer, DU-145
  GI50: 2.31 µM
NCI-60 cancer cell lines; EKVX, Non-Small Cell Lung Cancer, EKVX
  GI50: 4.91 µM
NCI-60 cancer cell lines; HCC 2998, Colon Cancer, HCC-2998
  GI50: 3.44 µM
NCI-60 cancer cell lines; HCT-15, Colon Cancer, HCT-15
  GI50: 2.9 µM
NCI-60 cancer cell lines; HCT-116, Colon Cancer, HCT-116
  GI50: 1.27 µM
NCI-60 cancer cell lines; HL-60, Leukemia, HL-60(TB)
  GI50: 4.28 µM
NCI-60 cancer cell lines; HOP-62, Non-Small Cell Lung Cancer, HOP-62
  GI50: 1.41 µM
NCI-60 cancer cell lines; HOP-92, Non-Small Cell Lung Cancer, HOP-92
  GI50: 4.47 µM
NCI-60 cancer cell lines; HT-29, Colon Cancer, HT29
  GI50: 2.48 µM
NCI-60 cancer cell lines; Hs-578T, Breast Cancer, HS 578T
  GI50: 8.95 µM
NCI-60 cancer cell lines; K562, Leukemia, K-562
  GI50: 5.13 µM
NCI-60 cancer cell lines; KM12, Colon Cancer, KM12
  GI50: 3.8 µM
NCI-60 cancer cell lines; LOX IMVI, Melanoma, LOX IMVI
  GI50: 1.34 µM
NCI-60 cancer cell lines; Leukemia, SR
  GI50: 0.29 µM
NCI-60 cancer cell lines; MCF7, Breast Cancer, MCF7
  GI50: 0.2 µM
NCI-60 cancer cell lines; MDA-MB-231, Breast Cancer, MDA-MB-231/ATCC
  GI50: 11.2 µM
NCI-60 cancer cell lines; MDA-MB-435, Melanoma, MDA-MB-435
  GI50: 4.67 µM
NCI-60 cancer cell lines; MOLT-4, Leukemia, MOLT-4
  GI50: 0.87 µM
NCI-60 cancer cell lines; Malme-3M, Melanoma, MALME-3M
  GI50: 4.49 µM
NCI-60 cancer cell lines; Melanoma, M14
  GI50: 2.85 µM
NCI-60 cancer cell lines; NCI-H23, Non-Small Cell Lung Cancer, NCI-H23
  GI50: 3.1 µM
NCI-60 cancer cell lines; NCI-H226, Non-Small Cell Lung Cancer, NCI-H226
  GI50: 2.79 µM
NCI-60 cancer cell lines; NCI-H322M, Non-Small Cell Lung Cancer, NCI-H322M
  GI50: 5.44 µM
NCI-60 cancer cell lines; NCI-H460, Non-Small Cell Lung Cancer, NCI-H460
  GI50: 0.44 µM
NCI-60 cancer cell lines; NCI-H522, Non-Small Cell Lung Cancer, NCI-H522
  GI50: 1.06 µM
NCI-60 cancer cell lines; OVCAR-3, Ovarian Cancer, OVCAR-3
  GI50: 2.7 µM
NCI-60 cancer cell lines; OVCAR-4, Ovarian Cancer, OVCAR-4
  GI50: 3.13 µM
NCI-60 cancer cell lines; OVCAR-5, Ovarian Cancer, OVCAR-5
  GI50: 6.31 µM
NCI-60 cancer cell lines; OVCAR-8, Ovarian Cancer, OVCAR-8
  GI50: 3.11 µM
NCI-60 cancer cell lines; Ovarian Cancer, NCl/ADR-RES
  GI50: 3.14 µM
NCI-60 cancer cell lines; Prostate Cancer, PC-3
  GI50: 19.5 µM
NCI-60 cancer cell lines; RPMI-8226, Leukemia, RPMI-8226
  GI50: 1.85 µM
NCI-60 cancer cell lines; RXF 393, Renal Cancer, RXF 393
  GI50: 7.16 µM
NCI-60 cancer cell lines; Renal Cancer, U0-31
  GI50: 0.42 µM
NCI-60 cancer cell lines; SF-268, CNS Cancer, SF-268
  GI50: 1.75 µM
NCI-60 cancer cell lines; SF-295, CNS Cancer, SF-295
  GI50: 1.27 µM
NCI-60 cancer cell lines; SF-539, CNS Cancer, SF-539
  GI50: 1.96 µM
NCI-60 cancer cell lines; SK-MEL-2, Melanoma, SK-MEL-2
  GI50: 19.5 µM
NCI-60 cancer cell lines; SK-MEL-5, Melanoma, SK-MEL-5
  GI50: 1.5 µM
NCI-60 cancer cell lines; SK-MEL-28, Melanoma, SK-MEL-28
  GI50: 8.03 µM
NCI-60 cancer cell lines; SK-OV-3, Ovarian Cancer, SK-OV-3
  GI50: 2.67 µM
NCI-60 cancer cell lines; SN12C, Renal Cancer, SN12C
  GI50: 4.1 µM
NCI-60 cancer cell lines; SNB-19, CNS Cancer, SNB-19
  GI50: 2.13 µM
NCI-60 cancer cell lines; SNB-75, CNS Cancer, SNB-75
  GI50: 3.63 µM
NCI-60 cancer cell lines; SW-620, Colon Cancer, SW-620
  GI50: 1.68 µM
NCI-60 cancer cell lines; T47D, Breast Cancer, T-47D
  GI50: 1.07 µM
NCI-60 cancer cell lines; TK-10, Renal Cancer, TK-10
  GI50: 4.63 µM
NCI-60 cancer cell lines; U-251, CNS Cancer, U251
  GI50: 1.72 µM
NCI-60 cancer cell lines; UACC-62, Melanoma, UACC-62
  GI50: 1.58 µM
NCI-60 cancer cell lines; UACC-257, Melanoma, UACC-257
  GI50: 6.6 µM
NCI-60 cancer cell lines; average of GI50 values across the entire panel of NCI-60 cancer cell lines
  mean GI50 across NCI-60 panel (MGM): 2570 nM
Human topoisomerase I
  Top1 Inhibiton: +++ (strong inhibition, +++, MYC expression inhibited at 0.5 to 1.0 μM)
